# From patent publication US8163921B2, “Hepatitis C virus inhibitors” (Bristol-Myers Squibb Company, priority 2008, dated 2012)
# Where two headings read alike, the source gives them in different places.
# Experiments:
# [1] = system: HCV replicon in HUH-7 cells; experiment: HCV replicon FRET assay; assay type: cell-based, HCV strain 1b; conditions: Hepatitis C virus
# Description: An HCV replicon whole cell system was established as described by Lohmann V, Korner F, Koch J, Herian U, Theilmann L, Bartenschlager R., Science 285(5424):110-3 (1999). This system enabled us to evaluate the effects of our HCV Protease compounds on HCV RNA replication. Briefly, using the HCV strain 1b sequence described in the Lohmann paper (Assession number:AJ238799), an HCV cDNA was synthesized by Operon Technologies, Inc. (Alameda, Calif.), and the full-length replicon was then assembled in plasmid pGem9zf(+) (Promega, Madison, Wis.) using standard molecular biology techniques. The replicon consists of (i) the HCV 5′ UTR fused to the first 12 amino acids of the capsid protein, (ii) the neomycin phosphotransferase gene (neo), (iii) the IRES from encephalomyocarditis virus (EMCV), and (iv) HCV NS3 to NS5B genes and the HCV 3′ UTR. Plasmid DNAs were linearized with ScaI and RNA transcripts were synthesized in vitro using the T7 MegaScript transcription kit (Ambion, Austin, Tex.) according to manufacturer's directions. In vitro transcripts of the eDNA were transfected into the human hepatoma cell line, HUH-7. […] Resulting cell lines were characterized for positive and negative strand RNA production and protein production over time.
# The HCV replicon FRET assay was developed to monitor the inhibitory effects of compounds described in the disclosure on HCV viral replication. HUH-7 cells, constitutively expressing the HCV replicon, were grown in Dulbecco's Modified Eagle Media (DMEM) (Gibco-BRL) containing 10% Fetal calf serum (FCS) (Sigma) and 1 mg/ml G418 (Gibco-BRL). Cells were seeded the night before (1.5×10^4 cells/well) in 96-well tissue-culture sterile plates. Compound and no compound controls were prepared in DMEM containing 4% FCS, 1:100 Penicillin/Streptomysin (Gibco-BRL), 1:100 L-glutamine and 5% DMSO in the dilution plate (0.5% DMSO final concentration in the assay). Compound/DMSO mixes were added to the cells and incubated for 4 days at 37° C. After 4 days, cells were first assessed for cytotoxicity using alamar Blue (Trek Diagnotstic Systems) for a CC50 reading. The toxicity of compound (CC50) was determined by adding 1/10th volume of alamar Blue to the media incubating the cells. After 4 h, the fluorescence signal from each well was read, with an excitation wavelength at 530 nm and an emission wavelength of 580 nm, using the Cytofluor Series 4000 (Perspective Biosystems). Plates were then rinsed thoroughly with Phosphate-Buffered Saline (PBS) (3 times 150 μl).
# [2] = target: T1, HCV NS3/4A protease complex, BMS strain (UniProt P27958, C1454S/C1711G, species not given); experiment: FRET peptide assay to monitor HCV NS3/4A proteolytic activity (BMS strain); assay type: biochemical, HCV genotype 1a; conditions: read-out: IC50 Range, HCV NS3/4A enzyme assay
# T1 construct: other: HCV NS3/4A enzyme assay; class symbols; numeric values; fused on or other part: three-lysine solubilising tail at the C-terminus of NS4A; purified on Ni-NTA from the pET21b vector (His tag implied)
# Description: HCV NS3 protease complexes, derived from the BMS strain, H77 strain or J4L6S strain, were generated, as described below. These purified recombinant proteins were generated for use in a homogeneous assay (see below) to provide an indication of how effective compounds of the present disclosure would be in inhibiting HCV NS3 proteolytic activity.
# Serum from an HCV-infected patient was obtained from Dr. T. Wright, San Francisco Hospital. An engineered full-length cDNA (compliment deoxyribonucleic acid) template of the HCV genome (BMS strain) was constructed from DNA fragments obtained by reverse transcription-PCR (RT-PCR) of serum RNA (ribonucleic acid) and using primers selected on the basis of homology between other genotype 1a strains. From the determination of the entire genome sequence, a genotype 1a was assigned to the HCV isolate according to the classification of Simmonds et al. (See P Simmonds, K A Rose, S Graham, S W Chan, F McOmish, B C Dow, E A Follett, P L Yap and H Marsden, J. Clin. Microbiol., 31(6), 1493-1503 (1993)). […] The infectious clones, H77 (1a genotype) and J4L6S (1b genotype) were obtained from R. Purcell (NIH) and the sequences are published in Genbank (AAB67036, see Yanagi, M., Purcell, R. H., Emerson, S. U. and Buldi, J. Proc. Natl. Acad. Sci. U.S.A. 94(16),8738-8743 (1997); AF054247, see Yanagi, M., St Claire, M., Shapiro, M., Emerson, S. U., Purcell, R. H. and Bukh, J, Virology 244 (1), 161-172. (1998)).
# NS3/4A protease complex-containing fractions were pooled and loaded on a desalting column Superdex-S200 pre-equilibrated with buffer D (25 mM HEPES, pH 7.5, 20% glycerol, 300 mM NaCl, 0.2% TritonX-100, 10 mM βMB). Sample was loaded at a flow rate of 1 mL/min. NS3/4A protease complex-containing fractions were pooled and concentrated to approximately 0.5 mg/ml. The purity of the NS3/4A protease complexes, derived from the BMS, H77 and J4L6S strains, were judged to be greater than 90% by SDS-PAGE and mass spectrometry analyses. The enzyme was stored at −80° C., thawed on ice and diluted prior to use in assay buffer.
# The purpose of this in vitro assay was to measure the inhibition of HCV NS3 protease complexes, derived from the BMS strain, H77 strain or J4L6S strain, as described above, by compounds of the present disclosure. This assay provides an indication of how effective compounds of the present disclosure would be in inhibiting HCV NS3 proteolytic activity.
# In order to monitor HCV NS3/4A protease activity, an NS3/4A peptide substrate was used. The substrate was RET S1 (Resonance Energy Transfer Depsipeptide Substrate; AnaSpec, Inc. cat #22991)(FRET peptide), described by Taliani et al. in Anal. Biochem. 240(2):60-67 (1996). The sequence of this peptide is loosely based on the NS4A/NS4B natural cleavage site for the HCV NS3 protease except there is an ester linkage rather than an amide bond at the cleavage site. The peptide also contains a fluorescence donor, EDANS, near one end of the peptide and an acceptor, DABCYL, near the other end. The fluorescence of the peptide is quenched by […] resonance energy transfer (RET) between the donor and the acceptor, but as the NS3 protease cleaves the peptide the products are released from RET quenching and the fluorescence of the donor becomes apparent.
# The peptide substrate was incubated with one of the three recombinant NS3/4A protease complexes, in the absence or presence of a compound of the present disclosure. The inhibitory effects of a compound were determined by monitoring the formation of fluorescent reaction product in real time using a Cytofluor Series 4000.
# Assay buffer: 50 mM HEPES, pH 7.5; 0.15 M NaCl; 0.1% Triton; 15% Glycerol; 10 mM βME. Substrate: 2 μM final concentration (from a 2 mM stock solution in DMSO stored at −20° C.). HCV NS3/4A protease type 1a (1b), 2-3 nM final concentration (from a 5 μM stock solution in 25 mM HEPES, pH 7.5, 20% glycerol, 300 mM NaCl, 0.2% Triton-X100, 10 mM βME). […]
# [3] = Huh-7, HCV replicon cell assay, numeric values, read-out: EC50 Range
compound,measurement,setting,value
"C=C[C@@H]1C[C@]1(NC(=O)[C@@H]1C[C@@H](Oc2ncc(OC)c3ccc(Cl)cc23)CN1C(=O)[C@@H](Nc1nc(-c2ccc(C(F)(F)F)cc2)cs1)C(C)(C)C)C(=O)NS(=O)(=O)C1CC1 [Example 10, (2S,4R)-4-(7-chloro-4-methoxyisoquinolin-1-yloxy)-N-((1R,2S)-1-(cyclopropylsulfonylcarbamoyl)-2-vinylcyclopropyl)-1-((S)-3,3-dimethyl-2-(4-(4-(trifluoromethyl)phenyl)thiazol-2-ylamino)butanoyl)pyrrolidine-2-carboxamide]",EC50,"[1]; Huh-7, read-out: EC50 Range",1 to 50 nM
same,IC50,[2]; class symbols,1 to 20 nM
C=C[C@@H]1C[C@]1(NC(=O)[C@@H]1C[C@@H](Oc2ncc(OC)c3ccc(Cl)cc23)CN1C(=O)[C@@H](Nc1nc(-c2ccc3ccccc3c2)cs1)C(C)(C)C)C(=O)NS(=O)(=O)C1CC1 [Example 11],EC50,"[1]; Huh-7, read-out: EC50 Range",1 to 50 nM
same,IC50,[2]; class symbols,1 to 20 nM
C=C[C@@H]1C[C@]1(NC(=O)[C@@H]1C[C@@H](Oc2ncc(OC)c3ccc(Cl)cc23)CN1C(=O)[C@@H](Nc1nc(-c2ccc(OC)cc2)c(CC)s1)C(C)(C)C)C(=O)NS(=O)(=O)C1CC1 [Example 12],EC50,"[1]; Huh-7, read-out: EC50 Range",1 to 50 nM
same,IC50,[2]; class symbols,1 to 20 nM
C=C[C@@H]1C[C@]1(NC(=O)[C@@H]1C[C@@H](Oc2ncc(OC)c3ccc(Cl)cc23)CN1C(=O)[C@@H](Nc1nc(-c2ccc(F)cc2F)cs1)C(C)(C)C)C(=O)NS(=O)(=O)C1CC1 [Example 13],EC50,"[1]; Huh-7, read-out: EC50 Range",1 to 50 nM
same,IC50,[2]; class symbols,1 to 20 nM
C=C[C@@H]1C[C@]1(NC(=O)[C@@H]1C[C@@H](Oc2ncc(OC)c3ccc(Cl)cc23)CN1C(=O)[C@@H](Nc1nc(-c2ccccn2)cs1)C(C)(C)C)C(=O)NS(=O)(=O)C1CC1 [Example 14],EC50,"[1]; Huh-7, read-out: EC50 Range",1 to 50 nM
same,IC50,[2]; class symbols,1 to 20 nM
C=C[C@@H]1C[C@]1(NC(=O)[C@@H]1C[C@@H](Oc2ncc(OC)c3ccc(Cl)cc23)CN1C(=O)[C@@H](Nc1nc(-c2cccnc2)cs1)C(C)(C)C)C(=O)NS(=O)(=O)C1CC1 [Example 15],EC50,"[1]; Huh-7, read-out: EC50 Range",1 to 50 nM
same,IC50,[2]; class symbols,1 to 20 nM
C=C[C@@H]1C[C@]1(NC(=O)[C@@H]1C[C@@H](Oc2ncc(OC)c3ccc(Cl)cc23)CN1C(=O)[C@@H](Nc1nc(-c2ccncc2)cs1)C(C)(C)C)C(=O)NS(=O)(=O)C1CC1 [Example 16],EC50,[1]; [3],6.57 nM
same,IC50,[2]; numeric values,1 nM
C=C[C@@H]1C[C@]1(NC(=O)[C@@H]1C[C@@H](Oc2ncc(OC)c3ccc(Cl)cc23)CN1C(=O)[C@@H](Nc1nc(-c2ccc(OC(F)(F)F)cc2)cs1)C(C)(C)C)C(=O)NS(=O)(=O)C1CC1 [Example 17],EC50,[1]; [3],8.95 nM
same,IC50,[2]; numeric values,11 nM
C=C[C@@H]1C[C@]1(NC(=O)[C@@H]1C[C@@H](Oc2ncc(OC)c3ccc(Cl)cc23)CN1C(=O)[C@@H](Nc1nc(-c2ccc(Br)cc2)c(Br)s1)C(C)(C)C)C(=O)NS(=O)(=O)C1CC1 [Example 19],EC50,"[1]; Huh-7, read-out: EC50 Range",1 to 50 nM
same,IC50,[2]; class symbols,1 to 20 nM
C=C[C@@H]1C[C@]1(NC(=O)[C@@H]1C[C@@H](Oc2ncc(OC)c3ccc(Cl)cc23)CN1C(=O)[C@@H](Nc1nc(-c2ccccc2)cs1)C(C)(C)C)C(=O)NS(=O)(=O)C1CC1 [Example 20],EC50,[1]; [3],3.9 nM
same,IC50,[2]; numeric values,3 nM
C=C[C@@H]1C[C@]1(NC(=O)[C@@H]1C[C@@H](Oc2ncc(OC)c3ccc(Cl)cc23)CN1C(=O)[C@@H](Nc1nc(-c2ccc(C#N)cc2)cs1)C(C)(C)C)C(=O)NS(=O)(=O)C1CC1 [Example 21],EC50,"[1]; Huh-7, read-out: EC50 Range",1 to 50 nM
same,IC50,[2]; class symbols,1 to 20 nM
C=C[C@@H]1C[C@]1(NC(=O)[C@@H]1C[C@@H](Oc2ncc(OC)c3ccc(Cl)cc23)CN1C(=O)[C@@H](Nc1nc(-c2cc(C(F)(F)F)cc(C(F)(F)F)c2)cs1)C(C)(C)C)C(=O)NS(=O)(=O)C1CC1 [Example 22],EC50,"[1]; Huh-7, read-out: EC50 Range",1 to 50 nM
same,IC50,[2]; class symbols,1 to 20 nM
C=C[C@@H]1C[C@]1(NC(=O)[C@@H]1C[C@@H](Oc2ncc(OC)c3ccc(Cl)cc23)CN1C(=O)[C@@H](Nc1nc(-c2ccc(C)cc2)cs1)C(C)(C)C)C(=O)NS(=O)(=O)C1CC1 [Example 23],EC50,"[1]; Huh-7, read-out: EC50 Range",1 to 50 nM
same,IC50,[2]; class symbols,20 to 200 nM
C=C[C@@H]1C[C@]1(NC(=O)[C@@H]1C[C@@H](Oc2ncc(OC)c3ccc(Cl)cc23)CN1C(=O)[C@@H](Nc1nc(-c2ccc(-c3ccccc3)cc2)cs1)C(C)(C)C)C(=O)NS(=O)(=O)C1CC1 [Example 24],EC50,"[1]; Huh-7, read-out: EC50 Range",1 to 50 nM
same,IC50,[2]; class symbols,20 to 200 nM
C=C[C@@H]1C[C@]1(NC(=O)[C@@H]1C[C@@H](Oc2ncc(OC)c3ccc(Cl)cc23)CN1C(=O)[C@@H](Nc1nc(-c2cccc(C#N)c2)cs1)C(C)(C)C)C(=O)NS(=O)(=O)C1CC1 [Example 25],EC50,"[1]; Huh-7, read-out: EC50 Range",1 to 50 nM
same,IC50,[2]; class symbols,1 to 20 nM
C=C[C@@H]1C[C@]1(NC(=O)[C@@H]1C[C@@H](Oc2ncc(OC)c3ccc(Cl)cc23)CN1C(=O)[C@@H](Nc1nc(-c2cnccn2)cs1)C(C)(C)C)C(=O)NS(=O)(=O)C1CC1 [Example 26],EC50,"[1]; Huh-7, read-out: EC50 Range",1 to 50 nM
same,IC50,[2]; class symbols,1 to 20 nM
C=C[C@@H]1C[C@]1(NC(=O)[C@@H]1C[C@@H](Oc2ncc(OC)c3ccc(Cl)cc23)CN1C(=O)[C@@H](Nc1nc(-c2ccc(Cl)c(C)c2)cs1)C(C)(C)C)C(=O)NS(=O)(=O)C1CC1 [Example 27],EC50,[1]; [3],5.26 nM
same,IC50,[2]; numeric values,2 nM
C=C[C@@H]1C[C@]1(NC(=O)[C@@H]1C[C@@H](Oc2ncc(OC)c3ccc(Cl)cc23)CN1C(=O)[C@@H](Nc1nc(-c2ccc(OC)cc2OC)cs1)C(C)(C)C)C(=O)NS(=O)(=O)C1CC1 [Example 28],EC50,"[1]; Huh-7, read-out: EC50 Range",1 to 50 nM
same,IC50,[2]; class symbols,1 to 20 nM
